Results as given in patent US12297187B2, “Compound having cyclic structure” (Daiichi Sankyo Company, Limited, priority 2017, dated 2025).

Test system: IL-10
Test: Measurement of IL-10 increase rate (LPS-induced inflammation in mice, serum IL-10 by ELISA)
Format: in vivo
Conditions: Mus musculus, 2 h, oral 100 mg/kg in 0.5% methyl cellulose, LPS 0.4 mg/kg i.p. one hour later, serum taken one hour after LPS, % control ratio vs 0.5% methyl cellulose group, read-out: IL10 Increase Rate (%)
Method: A test substance was suspended in a 0.5% (w/v) methyl cellulose and orally administered to mice at a dose of 100 mg/kg. One hour later, a lipopolysaccharide (LPS, Sigma-Aldrich, L2630 (trade name)) (0.4 mg/kg) was intraperitoneally administered to induce inflammation. One hour after administration of LPS, blood was taken from the vena cava under anesthesia with isoflurane, placed in a tube containing a serum separating agent, allowed to stand still at room temperature for 20-30 minutes and centrifuged at 4° C. at 12,000 rpm for 5 minutes to obtain the serum. Thereafter, the amount of the IL-10 in the serum was measured by using Mouse IL-10 Quantikine ELISA Kit (R&D systems, M1000B (trade name)) or Mouse IL-10 Immunoassay kit (PerkinElmer, AL502 (trade name)) in accordance with the protocol of the kit. The serum was diluted 10 times with the dilution solution contained in the kit and put in use. IL-10 increase rate (% control ratio) of the compound was calculated in accordance with the following expression: IL-10 increase rate (% control ratio) (IL10 amount in compound administration group)×100/(IL-10 amount in 0.5% (w/v) methyl cellulose administration group)

Compound | response vs control in vivo at 100 mg/kg [%]
Cn1c(COc2cccc(C(F)(F)F)c2)nnc1[C@H]1CC[C@H](c2cnn([C@@H]3CC[C@@H](CN4CCC4)OC3)c2)CC1 [Example 22, 1,5-Anhydro-6-azetidin-1-yl-2,3,4,6-tetradeoxy-2-{4-[trans-4-(4-methyl-5-{[3-(trifluoromethyl)phenoxy]methyl}-4H-1,2,4-triazol-3-yl)cyclohexyl]-1H-pyrazol-1-yl}-D-erythro-hexitol] | 113
Cn1c(COc2cc(C(F)(F)F)ccn2)nnc1[C@H]1CC[C@H](c2cnn([C@H]3CC[C@H](N4CCC5(COC5)C4)CC3)c2)CC1 [Example 26, 6-[trans-4-(4-{trans-4-[4-Methyl-5-({[4-(trifluoromethyl)pyridin-2-yl]oxy}methyl)-4H-1,2,4-triazol-3-yl]cyclohexyl}-1H-pyrazol-1-yl)cyclohexyl]-2-oxa-6-azaspiro[3.4]octane] | 231
Cn1c(COc2cc(C(F)(F)F)ccn2)nnc1[C@H]1CC[C@H](c2cnn([C@H]3CC[C@H](N4CC5(COC5)C4)CC3)c2)CC1 [Example 24, 6-[trans-4-(4-{trans-4-[4-Methyl-5-({[4-(trifluoromethyl)pyridin-2-yl]oxy}methyl)-4H-1,2,4-triazol-3-yl]cyclohexyl}-1H-pyrazol-1-yl)cyclohexyl]-2-oxa-6-azaspiro[3.3]heptane] | 257
COC(=O)c1cccc(OCc2nnc([C@H]3CC[C@H](c4cnn([C@H]5CC[C@H](N6CCC6)CC5)c4)CC3)n2C)c1 [Example 30, Methyl 3-{[5-(trans-4-{1-[trans-4-(azetidin-1-yl)cyclohexyl]-1H-pyrazol-4-yl}cyclohexyl)-4-methyl-4H-1,2,4-triazol-3-yl]methoxy}benzoate] | 141
CN(C)C12CCC(c3cn([C@H]4CC[C@H](c5nnc(COc6cccc(C(F)(F)F)c6)n5C)CC4)nn3)(CC1)CC2 [Example 11, N,N-Dimethyl-4-{1-[trans-4-(4-methyl-5-{[3-(trifluoromethyl)phenoxy]methyl}-4H-1,2,4-triazol-3-yl)cyclohexyl]-1H-1,2,3-triazol-4-yl}bicyclo[2.2.2]octan-1-amine] | 180
CN1CCC(c2cn(-c3ccc(-c4nnc(COc5cccc(C(F)(F)F)c5)n4C)cc3)cn2)CC1 [Example 18, 1-Methyl-4-{1-[4-(4-methyl-5-{[3-(trifluoromethyl)phenoxy]methyl}-4H-1,2,4-triazol-3-yl)phenyl]-1H-imidazol-4-yl}piperidine] | 157
CN1CCC(F)(c2cn([C@H]3CC[C@H](c4nnc(COc5ccc(Cl)c(C(F)(F)F)c5)n4C)CC3)nn2)CC1 [Example 5, 4-{1-[trans-4-(5-{[4-Chloro-3-(trifluoromethyl)phenoxy]methyl}-4-methyl-4H-1,2,4-triazol-3-yl)cyclohexyl]-1H-1,2,3-triazol-4-yl}-4-fluoro-1-methylpiperidine] | 206
Cn1c(COc2cccc(C(F)(F)F)c2)nnc1[C@H]1CC[C@H](c2cnn([C@H]3CC[C@H](N4CCC4)CC3)c2)CC1 [Example 21, 3-(trans-4-{1-[trans-4-(Azetidin-1-yl)cyclohexyl]-1H-pyrazol-4-yl}cyclohexyl)-4-methyl-5-{[3-(trifluoromethyl)phenoxy]methyl}-4H-1,2,4-triazole] | 312
CN1CCC(c2cn(-c3ccc(-c4nnc(COc5cccc(C(F)(F)F)c5)n4C)cc3)nn2)CC1 [Example 1, 1-Methyl-4-{1-[4-(4-methyl-5-{[3-(trifluoromethyl)phenoxy]methyl}-4H-1,2,4-triazol-3-yl)phenyl]-1H-1,2,3-triazol-4-yl}piperidine] | 146
Cn1c(COc2cc(C(F)(F)F)ccn2)nnc1[C@H]1CC[C@H](c2cnn([C@H]3CC[C@H](N4CC(CO)(CO)C4)CC3)c2)CC1 [Example 29, {1-[trans-4-(4-{trans-4-[4-Methyl-5-({[4-(trifluoromethyl)pyridin-2-yl]oxy}methyl)-4H-1,2,4-triazol-3-yl]cyclohexyl}-1H-pyrazol-1-yl)cyclohexyl]azetidine-3,3-diyl}dimethanol] | 111
Cn1c(COc2cc(C(F)(F)F)ccn2)nnc1[C@H]1CC[C@H](c2cnn([C@H]3CC[C@H](N4CCOCC4)CC3)c2)CC1 [Example 23, 4-[trans-4-(4-{trans-4-[4-Methyl-5-({[4-(trifluoromethyl)pyridin-2-yl]oxy}methyl)-4H-1,2,4-triazol-3-yl]cyclohexyl}-1H-pyrazol-1-yl)cyclohexyl]morpholine] | 232
Cn1c(COc2cc(C(F)(F)F)ccn2)nnc1[C@H]1CC[C@H](c2cnn([C@H]3C[C@H](O)[C@@H](N4CCC4)C3)c2)CC1 (racemic) [Example 28, (1SR,2SR,4RS)-2-(Azetidin-1-yl)-4-(4-{trans-4-[4-methyl-5-({[4-(trifluoromethyl)pyridin-2-yl]oxy}methyl)-4H-1,2,4-triazol-3-yl]cyclohexyl}-1H-pyrazol-1-yl)cyclopentanol] | 113
COC(=O)c1cccc(OCc2nnc([C@H]3CC[C@H](c4cnn([C@H]5CC[C@H](N6CC7(COC7)C6)CC5)c4)CC3)n2C)c1 [Example 31, Methyl 3-{[4-methyl-5-(trans-4-{1-[trans-4-(2-oxa-6-azaspiro[3.3]hept-6-yl)cyclohexyl]-1H-pyrazol-4-yl}cyclohexyl)-4H-1,2,4-triazol-3-yl]methoxy}benzoate] | 222
CN1CCC(c2nnc(-c3ccc(-c4nnc(COc5cccc(C(F)(F)F)c5)n4C)cc3)o2)CC1 [Example 34, 1-Methyl-4-{5-[4-(4-methyl-5-{[3-(trifluoromethyl)phenoxy]methyl}-4H-1,2,4-triazol-3-yl)phenyl]-1,3,4-oxadiazol-2-yl}piperidine] | 202
Cn1c(COc2cc(C(F)(F)F)ccn2)nnc1[C@H]1CC[C@H](c2cn([C@H]3CC[C@H](N4CC(CF)C4)CC3)nn2)CC1 [Example 20, 2-({5-[trans-4-(1-{trans-4-[3-(Fluoromethyl)azetidin-1-yl]cyclohexyl}-1H-1,2,3-triazol-4-yl)cyclohexyl]-4-methyl-4H-1,2,4-triazol-3-yl}methoxy)-4-(trifluoromethyl)pyridine] | 176
Cn1c(CCn2cccc(C(F)(F)F)c2=O)nnc1[C@H]1CC[C@H](c2cnn([C@H]3CC[C@H](N4CC5(CCOC5)C4)CC3)c2)CC1 [Example 33, 1-{2-[4-Methyl-5-(trans-4-{1-[trans-4-(6-oxa-2-azaspiro[3.4]oct-2-yl)cyclohexyl]-1H-pyrazol-4-yl}cyclohexyl)-4H-1,2,4-triazol-3-yl]ethyl}-3-(trifluoromethyl)pyridin-2(1H)-one] | 144
Cn1c(COc2cc(C(F)(F)F)ccn2)nnc1[C@H]1CC[C@H](c2cnn([C@H]3CC[C@H](N4CC5(CCOC5)C4)CC3)c2)CC1 [Example 27, 2-[trans-4-(4-{trans-4-[4-Methyl-5-({[4-(trifluoromethyl)pyridin-2-yl]oxy}methyl)-4H-1,2,4-triazol-3-yl]cyclohexyl}-1H-pyrazol-1-yl)cyclohexyl]-6-oxa-2-azaspiro[3.4]octane] | 255
CC(C)c1cccc(O[C@H](C)c2nnc([C@H]3CC[C@H](n4cc(C5(F)CCN(C)CC5)nn4)CC3)n2C)c1 [Example 4, 4-Fluoro-1-methyl-4-{1-[trans-4-(4-methyl-5-{(1R)-1-[3-(propan-2-yl)phenoxy]ethyl}-4H-1,2,4-triazol-3-yl)cyclohexyl]-1H-1,2,3-triazol-4-yl}piperidine] | 131
